We go through eleven molecules from publication PMC4301037, “Identification and Structure–Function Analysis of Subfamily Selective G Protein-Coupled Receptor Kinase Inhibitors” (ACS Chemical Biology, 2014).

One assay addresses T1, bovine GRK5 (Bos taurus, UniProt P43249).
T1 construct: when using full-length kinases as the receptor[37] instead of isolated kinase domains; made in house
As to the kind of experiment: Primary DSF inhibitor screen, GRK5. It is filed as binding. Conditions: 10 μM compound; for ΔTm at 10 µM / ΔTm, primary screen, GRK5: 2 μM kinase, relative to DMSO control; for ΔTm at 10 µM: read-out: ΔTm, primary screen, GRK5.

Assay [1] deals with T2, GRK2 (Homo sapiens, UniProt P25098, S670A).
T2 construct: made in house
T2 sequence (P25098 1-689 S670A): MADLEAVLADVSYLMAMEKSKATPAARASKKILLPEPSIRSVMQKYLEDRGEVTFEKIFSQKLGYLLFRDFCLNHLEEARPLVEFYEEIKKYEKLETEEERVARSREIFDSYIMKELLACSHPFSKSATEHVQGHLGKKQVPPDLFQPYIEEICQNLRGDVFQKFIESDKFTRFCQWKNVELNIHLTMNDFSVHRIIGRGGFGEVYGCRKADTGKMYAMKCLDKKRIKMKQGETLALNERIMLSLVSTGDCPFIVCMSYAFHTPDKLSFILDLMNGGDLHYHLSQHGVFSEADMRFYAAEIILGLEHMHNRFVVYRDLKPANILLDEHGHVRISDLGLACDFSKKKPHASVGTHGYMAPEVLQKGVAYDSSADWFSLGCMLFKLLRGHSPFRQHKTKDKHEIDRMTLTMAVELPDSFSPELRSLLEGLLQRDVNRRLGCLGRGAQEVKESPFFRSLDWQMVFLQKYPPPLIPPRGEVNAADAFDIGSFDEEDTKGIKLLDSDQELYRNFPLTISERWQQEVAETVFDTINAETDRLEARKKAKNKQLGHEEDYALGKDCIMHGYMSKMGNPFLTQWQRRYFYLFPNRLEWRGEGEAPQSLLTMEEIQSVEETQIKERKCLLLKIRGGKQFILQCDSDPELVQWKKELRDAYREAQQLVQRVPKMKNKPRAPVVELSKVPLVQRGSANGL
Nature of the assay: DSF retest (confirmation), GRK2. It is filed as binding.

The target of assay [2] is T3, GRK5 (Bos taurus, UniProt P43249).
T3 construct: when using full-length kinases as the receptor[37] instead of isolated kinase domains; made in house
T3 sequence (P43249 whole entry, the tested form may be a part): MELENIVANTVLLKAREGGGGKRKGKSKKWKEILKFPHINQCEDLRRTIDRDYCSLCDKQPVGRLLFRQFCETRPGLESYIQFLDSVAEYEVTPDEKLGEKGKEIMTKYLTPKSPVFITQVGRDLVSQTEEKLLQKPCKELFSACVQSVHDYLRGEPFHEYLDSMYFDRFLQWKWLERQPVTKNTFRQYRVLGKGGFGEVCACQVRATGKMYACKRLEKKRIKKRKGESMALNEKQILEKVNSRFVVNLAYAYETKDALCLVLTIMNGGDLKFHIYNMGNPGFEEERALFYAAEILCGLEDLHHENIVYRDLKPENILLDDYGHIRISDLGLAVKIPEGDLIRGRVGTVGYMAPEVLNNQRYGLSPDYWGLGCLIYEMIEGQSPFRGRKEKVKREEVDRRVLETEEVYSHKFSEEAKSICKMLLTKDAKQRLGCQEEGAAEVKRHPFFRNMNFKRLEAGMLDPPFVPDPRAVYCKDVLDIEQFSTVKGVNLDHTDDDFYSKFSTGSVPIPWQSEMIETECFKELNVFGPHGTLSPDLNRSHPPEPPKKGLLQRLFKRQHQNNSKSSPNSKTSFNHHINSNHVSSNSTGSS
As to the kind of experiment: DSF retest (confirmation), GRK5. Type of assay: binding, bovine.

The next assay has as its target T4, protein kinase A (PKA) (Mus musculus, UniProt P05132).
T4 construct: His tag (inferred from pET15b vector and Ni-NTA column) (N); host or cells: E. coli Rosetta(DE3)pLysS
Nature of the assay: DSF retest (confirmation), PKA. Type of assay: binding. The procedure:
Fourteen compounds (Figure 1a–c), including all GRK2 hits except staurosporine, and the most stabilizing pyrrolopyrimidine-containing compounds were obtained from GSK and retested using DSF on GRKs representing each vertebrate subfamily (GRK1, 2, and 5) (Table 1). […] The ability of these compounds to shift the Tm of the related AGC family kinase member protein kinase A (PKA) was also assessed (Table 1). In no case was ΔTm greater for PKA than for one of the tested GRKs. […]. There was no correlation for GRK1 (Figure 2c).
DSF was conducted using a ThermoFluor plate reader (Johnson & Johnson) in a buffer containing 20 mM HEPES, pH 7.0, 5 mM MgCl2, 2 mM DTT, and 1 mM CHAPS with 0.2 mg mL^–1 final concentration of GRK or PKA and 100 μM 1-anilinonaphthalene-8-sulfonic acid.[14]

Assay [3] addresses T5, GRK2 (Bos taurus, UniProt P21146, S670A).
T5 construct: made in house
T5 sequence (P21146 1-689 S670A): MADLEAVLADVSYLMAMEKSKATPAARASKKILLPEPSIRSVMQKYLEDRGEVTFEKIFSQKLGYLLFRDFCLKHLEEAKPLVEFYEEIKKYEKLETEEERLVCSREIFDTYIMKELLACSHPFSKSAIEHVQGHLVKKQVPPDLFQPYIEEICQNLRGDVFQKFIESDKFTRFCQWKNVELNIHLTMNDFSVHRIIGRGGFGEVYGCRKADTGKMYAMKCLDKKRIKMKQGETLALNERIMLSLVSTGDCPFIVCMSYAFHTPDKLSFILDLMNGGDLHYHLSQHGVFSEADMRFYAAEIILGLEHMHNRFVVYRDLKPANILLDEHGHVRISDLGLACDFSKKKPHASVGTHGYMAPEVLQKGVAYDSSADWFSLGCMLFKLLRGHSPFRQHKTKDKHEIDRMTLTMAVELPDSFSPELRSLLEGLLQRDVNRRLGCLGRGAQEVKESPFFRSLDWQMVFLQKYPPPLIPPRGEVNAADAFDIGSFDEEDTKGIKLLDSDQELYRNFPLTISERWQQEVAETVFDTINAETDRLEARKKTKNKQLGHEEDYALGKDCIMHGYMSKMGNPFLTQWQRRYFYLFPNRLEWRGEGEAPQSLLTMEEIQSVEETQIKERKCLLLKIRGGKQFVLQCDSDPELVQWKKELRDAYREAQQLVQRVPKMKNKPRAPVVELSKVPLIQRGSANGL
As to the kind of experiment: In vitro phosphorylation assay (tubulin, 5 μM ATP), GRK2. It is filed as biochemical, bovine. Conditions: read-out: GRK2 log IC50 (converted).

Assay [4] addresses T3, GRK5. As to the kind of experiment: In vitro phosphorylation assay (tubulin, 5 μM ATP), GRK5. It is filed as biochemical, bovine. Conditions: read-out: GRK5 log IC50 (converted).
In another assay the target is T6, PKA (Mus musculus, UniProt P05132).
T6 construct: His tag (inferred from pET15b vector and Ni-NTA column) (N); host or cells: E. coli Rosetta(DE3)pLysS
As to the kind of experiment: PKA inhibition assay (ADP-Glo, CREBtide, 100 μM ATP). Type of assay: biochemical. As to conditions: logarithm of IC50 (−3.3 corresponds to 0.5 mM, footnote c); 438 nM PKA, 100 μM ATP, CREBtide; read-out: PKA log IC50 (converted). On the technique in general: ADP-Glo first removes unused ATP, then detects ADP through luciferase.

Where [5] appears, read: relative to intrinsic melting point of the kinase.

As usually defined, the ΔTm is the shift of the melting midpoint relative to a reference. The term IC50 denotes the concentration at which inhibition is half-maximal.

T1 sequence (P43249 whole entry, the tested form may be a part): as the sequence (P43249 whole entry, the tested form may be a part) above

Regarding `CC1=C(C(=O)Nc2ccc3[nH]nc(C)c3c2)C(c2ccc(C(F)(F)F)cc2)CC(=O)N1` (stereo not shown) [GSK466314A], the ΔTm at 10 µM on bovine GRK5 amounted to 3.54 °C.
Turning to `C[C@@H](Oc1cc(-n2cnc3ccc(OCC4CCN(C)CC4)cc32)sc1C(N)=O)c1ccccc1C(F)(F)F` [GSK326090A], the shift in melting temperature (ΔTm) at 10 µM on bovine GRK5 turned out to be 2.06 °C.
In the case of `Cl.Cl.NCCNc1ncc(C(N)=O)c(Nc2cccc(C(F)(F)F)c2)n1` [Syk Inhibitor II], the “ΔTm, primary screen, GRK5” value on bovine GRK5 was found to be 2.43 °C.
`CCCN1CCC(Oc2cc(Nc3nc(Nc4cccc(F)c4C(N)=O)c4cc[nH]c4n3)c(OC)cc2Cl)CC1` [GSK1713088A]: at bovine GRK5, the “ΔTm, primary screen, GRK5” value was determined as 7.4 °C. Moreover, at bovine GRK5, the ΔTm at 10 µM came out at 7.37 °C. The “rank in the primary screen, GRK5” value on bovine GRK5 (rank ordering of compounds in primary DSF screen) turned out to be 11. In addition, the “GRK2 Tm” value at GRK2 [1] (0.2 mg mL^–1 kinase) worked out at 44.2 °C. Also, the “GRK2 ΔTm” value on GRK2 [1] (setting [5]) came out at 6.7 °C. Also, the “GRK5 Tm” value at GRK5 [2] (0.2 mg mL^–1 kinase) worked out at 40.3 °C. Moreover, the “GRK5 ΔTm” value at GRK5 [2] (setting [5]) was found to be 13.6 °C. Also, the “PKA Tm” value at protein kinase A (PKA) (0.2 mg mL^–1 kinase) came out at 45.8 °C. Further, the “PKA ΔTm” value on protein kinase A (PKA) (setting [5]) came out at 0.4 °C. Also, the IC50 at GRK2 [3] was 6.31 µM; on GRK5 [4] it was 3.16 µM; at PKA, more than 501 µM.
For `Nc1nc(-c2ccc(F)cc2)c(-c2ccc3ncccc3n2)s1` [GW785804X], the ΔTm at 10 µM at bovine GRK5 was found to be 3.16 °C.
Still for that read-out and setting: under `Cn1cc(C2=C(c3ccc(Cl)cc3Cl)C(=O)NC2=O)c2ccccc21` [SB216763] stands 2.78 °C; under `Cc1ccc(NC(=O)CC2CC2)cc1-c1ccc(C(=O)NCC2CC2)cc1` [GW796920X], 3.82 °C.
Take `Cl.Cn1cc(C2=C(c3c4n(c5ccccc35)CCC(CN)C4)C(=O)NC2=O)c2ccccc21` (stereo not shown) [BIM 10, Bisindolylmaleimide X, HCl]: the “ΔTm, primary screen, GRK5” value on bovine GRK5 stood at 6.19 °C.
For the molecule `CN(C)C(=O)O[C@@H]1CN[C@@H](C#Cc2cc3ncnc(Nc4ccc(OCc5cccc(F)c5)c(Cl)c4)c3s2)C1` [GSK238063A], the ΔTm at 10 µM at bovine GRK5 was found to be 2.93 °C.
Consider `NC(=O)c1cccc(Nc2nccc(Nc3cccc(F)c3)n2)c1` [GW759710A], for which, on bovine GRK5, the ΔTm at 10 µM worked out at 2.68 °C.
For `Nc1nc(Nc2ccc(S(N)(=O)=O)cc2)nn1C(=O)c1c(F)cccc1F` [Aurora/Cdk Inhibitor], at bovine GRK5, the “ΔTm, primary screen, GRK5” value is 5.41 °C.
